We go through 15 molecules from patent US20090181948A1, “DIAMINE DERIVATIVE” (KYOWA HAKKO KOGYO CO., LTD., priority 2005, published 2009).

The target in data set [1] is T1, histamine H3 receptor (Rattus norvegicus, UniProt Q9QYN8).
T1 construct: from tissue; host or cells: rat striatum (Sprague-Dawley, male, 6 weeks), membrane homogenate
The experiment in a line: Inhibitory effect on histamine release suppressive action of histamine H3 receptor agonist (Nα-methylhistamine) in rat forebrain synaptosomes. Particulars: 1 μmol/L test compound and 1 μmol/L Nα-methylhistamine, potassium 30 mmol/L stimulation, read-out: Inhibition ratio of the [3H]-histamine release suppressive action of Nα-methylhistamine. The class given is biochemical. The method, then:
To the forebrains of Sprague-Dawley male rats (6 to 8 weeks of age), a 30-fold volume of a 0.32 mol/L aqueous sucrose solution was added and the forebrains were homogenized. The resulting homogenate was centrifuged (1,000×g, 4° C., 10 min), and to the obtained supernatant, an equivalent volume of Krebs-Ringer solution [120 mmol/L sodium chloride, 0.8 mmol/L potassium chloride, 2.6 mmol/L calcium chloride, 0.67 mmol/L magnesium sulfate, 1.2 mmol/L potassium dihydrogen phosphate, 27.5 mmol/L sodium bicarbonate, 10 mmol/L glucose (pH 7.3)] was added, and the resulting mixture was centrifuged (10,000×g, 4° C., 15 min). To the obtained precipitate, a 15-fold volume of Krebs-Ringer solution was added to suspend the precipitate. Then, the concentration of protein in the resulting tissue homogenate (synaptosomes) was measured and used for a test.
To the synaptosomes (300 μg in terms of protein amount) prepared by the above-described method, a [^3H]-histidine solution [final concentration: […] (740 kBq)/mL]: 6 μl of a 37 MBq/mL (specific activity: […]) solution] was added, and the total volume was adjusted to 300 μL with Krebs-Ringer solution. Then, the resulting mixture was incubated at 37° C. for 30 minutes and centrifuged (10,000×g, 25° C., 3 min). To the resulting precipitate (synaptosomes), 300 μL of Krebs-Ringer solution was added, and the mixture was incubated at 37° C. for 5 minutes and centrifuged (10,000×g, 25° C., 3 min). This procedure was repeated 5 times, whereby washing of synaptosomes was carried out. The resulting synaptosomes were suspended in 100 μL of Krebs-Ringer solution, and the resulting suspension was used for the following procedure.
A test compound and N^α-methylhistamine were separately dissolved in Krebs-Ringer solution to give a concentration of 20 μmol/L (the resulting mixtures were referred to as a test compound solution and a N^α-methylhistamine solution, respectively). To 100 μL of the above-described suspended synaptosomes (300 μg in terms of protein amount), 140 μL of Krebs-Ringer solution was added. Then, 30 μL of the test compound solution and 30 μL of the N^α-methylhistamine solution were added thereto, and the resulting mixture was incubated at 37° C. for 2 minutes. Then, an equivalent volume of a stimulating solution [64 mmol/L sodium chloride, 56.8 mmol/L potassium chloride, 2.6 mmol/L calcium chloride, 0.67 mmol/L magnesium sulfate, 1.2 mmol/L potassium dihydrogen phosphate, 27.5 mmol/L sodium bicarbonate, 10 mmol/L glucose (pH 7.3)] (final potassium concentration: 30 mmol/L) was added, and the resulting mixture was incubated at 37° C. for 2 minutes to release [^3H]-histamine. The reaction mixture was centrifuged (10,000×g, 25° C., 3 min), and the obtained supernatant was passed through Amberlite CG-50 column (250 μL), and the non-adsorbed fractions were discarded. Then, 2 mL of 50 mmol/L [[…]]/hydrochloric acid (HCl) (pH 7.5) (Tris) was passed through the column 3 times, and 2 mL of distilled water, and 1.5 mL of a 0.2 mol/L aqueous sodium hydroxide solution were passed through the column in this order, and the eluted fractions were discarded. Then, 2 mL of a 0.2 mol/L aqueous sodium hydroxide solution was passed through the column, and the eluted fraction was recovered in a scintillation vial. Then, 8 mL of Ultimagold (Perkin Elmer) was added to the recovered eluted solution, and the radioactivity ([^3H]-histamine) was measured using a liquid scintillation counter. The inhibitory action of the test compound on the histamine release suppressive action of N^α-methylhistamine was evaluated by obtaining the inhibition ratio to the histamine release suppressive action in the presence of 1 μmol/L No-methylhistamine and 1 μmol/L of the test compound. The inhibition ratio of the [^3H]-histamine release suppressive action was calculated using the following Equation (2). […]

The target in data set [2] is T1, histamine H3 receptor. The experiment in a line: Histamine H3 receptor binding assay ([3H]-Nα-methylhistamine binding to rat striatum homogenate). Particulars: 1 μmol/L test compound; [3H]-Nα-methylhistamine 1 nmol/L; striata of Sprague-Dawley male rats, 25° C., 1 hour; read-out: Inhibition ratio of [3H]-Nα-methylhistamine binding. The essentials:
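Rat striatum membranes (20 μg protein) incubated with [3H]-Nα-methylhistamine 1 nmol/L in 50 mmol/L Tris/HCl pH 7.4, 5 mmol/L EDTA, 1 hour at 25° C; bound ligand by filtration and scintillation counting. Nonspecific binding defined with 10 μmol/L thioperamide; % inhibition reported at 1 μmol/L compound.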

T1 sequence (Q9QYN8 whole entry): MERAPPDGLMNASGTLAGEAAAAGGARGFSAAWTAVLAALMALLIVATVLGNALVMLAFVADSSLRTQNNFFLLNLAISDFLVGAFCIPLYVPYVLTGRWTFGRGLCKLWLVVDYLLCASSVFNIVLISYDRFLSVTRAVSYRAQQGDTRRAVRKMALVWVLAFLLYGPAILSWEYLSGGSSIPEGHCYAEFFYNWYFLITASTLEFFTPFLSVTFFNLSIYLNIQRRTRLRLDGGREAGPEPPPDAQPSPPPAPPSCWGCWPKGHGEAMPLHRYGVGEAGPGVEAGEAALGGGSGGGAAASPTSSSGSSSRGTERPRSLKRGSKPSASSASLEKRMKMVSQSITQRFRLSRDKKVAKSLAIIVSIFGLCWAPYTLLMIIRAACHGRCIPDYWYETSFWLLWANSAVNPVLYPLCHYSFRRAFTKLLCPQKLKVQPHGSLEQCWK

As usually defined, the melting point is the temperature of the solid-liquid transition. Regarding `N#CC(C#N)=C(NCCCN1CCCCC1)N1CCC(N2CCCCC2)CC1` [Compound 160, [(4-Piperidinopiperidino)(3-piperidinopropylamino)methylene]malononitrile], the melting point lay within 117 to 118 °C. Moreover, the inhibition at 1 µM in data set [1] is at least 70%. Besides, in data set [2], the inhibition at 1 µM is at least 80%.

On to `CC(C)N1CCC(N2CCN(CCCN3CCSCC3)C2=C(C#N)C#N)CC1` [Compound 231, [1-(1-Isopropylpiperidin-4-yl)-3-(3-thiomorpholin-1-ylpropyl)imidazolidin-2-ylidene]malononitrile], for which the melting point lay in the range of 124 to 125 °C. For the same molecule, the inhibition at 1 µM in data set [1] was at least 70%. In data set [2], the inhibition at 1 µM is at least 80%.

Molecule `CC1CCCN1CCCN1CCN(CCCN2CCCC2C)C1=C(C#N)C#N` (stereo not drawn) [Compound 65, {1,3-Bis[3-(2-methylpyrrolidin-1-yl)propyl]imidazolidin-2-ylidene}malononitrile] returned a melting point of 89 to 93 °C. In addition, in data set [1], the inhibition at 1 µM was at least 70%. In data set [2], the inhibition at 1 µM is at least 80%.

In turn, `CC1CCCN1CCN1CCN(CCCN2CCCCC2)C1=C(C#N)C#N` (stereo not drawn) [Compound 57, {1-[2-(2-Methylpyrrolidin-1-yl)ethyl]-3-(3-piperidinopropyl)imidazolidin-2-ylidene}malononitrile] came in with a melting point of 84 to 86 °C. Moreover, the inhibition at 1 µM in data set [1] was at least 70%. Also, in data set [2], the inhibition at 1 µM was at least 80%.

`C[C@H]1CCCN1CCN1CCN(CCCN2CCCCC2)C1=C(C#N)C#N` [Compound 58, {1-[2-((S)-2-methylpyrrolidin-1-yl)ethyl]-3-(3-piperidinopropyl)imidazolidin-2-ylidene}malononitrile] gave a melting point of 95 to 96 °C. For the same molecule, the inhibition at 1 µM in data set [1] was at least 70%. The inhibition at 1 µM in data set [2] is at least 80%.

As to `CC(C)N1CCC(N(C)C(=C(C#N)C#N)N2CCC(N3CCCCC3)CC2)CC1` [Compound 176, {[N-(1-isopropylpiperidin-4-yl)-N-methylamino](4-piperidinopiperidino)methylene}malononitrile], the melting point is 129 to 130 °C. In addition, in data set [1], the inhibition at 1 µM is at least 70%. For the same molecule, the inhibition at 1 µM in data set [2] is at least 80%.

As to `CN(CCN1CCCCC1)C(=C(C#N)C#N)N1CCC(N2CCCCC2)CC1` [Compound 144, {[Methyl(2-piperidinoethyl)amino](4-piperidinopiperidino)methylene}malononitrile], the melting point fell in the range of 109 to 111 °C. For the same molecule, the inhibition at 1 µM in data set [1] is at least 70%. Moreover, the inhibition at 1 µM in data set [2] was at least 80%.

Molecule `N#CC(C#N)=C(NCCCN1CCOCC1)N1CCC(N2CCCCC2)CC1` [Compound 165, [(4-Piperidinopiperidino)(3-morpholinopropylamino)methylene]malononitrile] displayed a melting point of 77 to 80 °C. The inhibition at 1 µM in data set [1] was at least 70%. The inhibition at 1 µM in data set [2] is at least 80%.

`CN(CCCN1CCCCC1)C(=C(C#N)C#N)N1CCC(N2CCCC2)CC1` [Compound 159, {[N-methyl-N-(3-piperidinopropyl)amino][4-(pyrrolidin-1-yl)piperidino]methylene}malononitrile] yielded a melting point of 116 to 117 °C. For the same molecule, in data set [1], the inhibition at 1 µM was at least 70%. Besides, the inhibition at 1 µM in data set [2] was at least 80%.

As to `CC(C)N1CCC(N(C)C(=C(C#N)C#N)N2CCC(CN3CCCC3C)CC2)CC1` (stereo not drawn) [Compound 181, {[N-(1-isopropylpiperidin-4-yl)-N-methylamino][4-(2-methylpyrrolidin-1-ylmethyl)piperidino]methylene}malononitrile], the melting point lay within 138 to 140 °C. Besides, the inhibition at 1 µM in data set [1] is at least 70%. Moreover, in data set [2], the inhibition at 1 µM is at least 80%.

Turning to `CN(CCCN1CCOCC1)C(=C(C#N)C#N)N1CCC(N2CCCCC2)CC1` [Compound 166], the melting point is 104 to 106 °C. Also, in data set [1], the inhibition at 1 µM was at least 70%. For the same molecule, the inhibition at 1 µM in data set [2] is at least 80%.

Consider `C[C@@H]1CCCN1CCN1CCN(CCCN2CCCCC2)C1=C(C#N)C#N` [Compound 193, {1-[2-((R)-2-methylpyrrolidin-1-yl)ethyl]-3-(3-piperidinopropyl)imidazolidin-2-ylidene}malononitrile], for which the melting point lay in the range of 89 to 90 °C. The inhibition at 1 µM in data set [1] is at least 70%. In data set [2], the inhibition at 1 µM is at least 80%.

`CC1CCCN1CCCN1CCN(CCN2CCCC2C)C1=C(C#N)C#N` (stereo not drawn) [Compound 11, {1-[2-(2-Methylpyrrolidin-1-yl)ethyl]-3-[3-(2-methylpyrrolidin-1-yl)propyl]imidazolidin-2-ylidene}malononitrile] yielded a melting point of 69 to 71 °C. The inhibition at 1 µM in data set [1] was at least 70%. In addition, the inhibition at 1 µM in data set [2] is at least 80%.

In the case of `CC(C)N1CCC(N2CCN(CCCN3C[C@@H](C)O[C@@H](C)C3)C2=C(C#N)C#N)CC1` [Compound 234, {3-[3-(Cis-2,6-dimethylmorpholino)propyl]-1-(1-isopropylpiperidin-4-yl)imidazolidin-2-ylidene}malononitrile], the melting point lay in the range of 117 to 118 °C. The inhibition at 1 µM in data set [1] was at least 70%. In addition, the inhibition at 1 µM in data set [2] was at least 80%.

`N#CC(C#N)=C1N(CCCN2CCCCC2)CCN1C1CCN(C2CC2)CC1` [Compound 226, [1-(1-Cyclopropylpiperidin-4-yl)-3-(3-piperidinopropyl)imidazolidin-2-ylidene]malononitrile] gave a melting point of 104 to 105 °C. For the same molecule, in data set [1], the inhibition at 1 µM was at least 70%. The inhibition at 1 µM in data set [2] is at least 80%.
